Test results published in article PMC10017518, “Structural basis for bacterial energy extraction from atmospheric hydrogen” (Nature, 2023).

How the values were obtained:
Huc = target: T1, Huc (Mycolicibacterium smegmatis, UniProt A0QUM6+A0QUM7); assay: H2 electrode and gas chromatography of H2 consumption; assay type: biochemical; settings: H2 as donor, 50 mM Tris, 150 mM NaCl, pH 8.0
T1 construct: gene hybA; native host purification, chromosomal N-terminal 2×StrepII tag on HucS, tag kept; 833 kDa oligomer of four HucS2L2 lobes on a HucM tetramer; HucL ~58, HucS ~39, HucM ~18 kDa; with Group 2a [NiFe] hydrogenase large subunit HucL; Huc scaffold and stalk protein HucM
T1 sequence (A0QUM6 2-323): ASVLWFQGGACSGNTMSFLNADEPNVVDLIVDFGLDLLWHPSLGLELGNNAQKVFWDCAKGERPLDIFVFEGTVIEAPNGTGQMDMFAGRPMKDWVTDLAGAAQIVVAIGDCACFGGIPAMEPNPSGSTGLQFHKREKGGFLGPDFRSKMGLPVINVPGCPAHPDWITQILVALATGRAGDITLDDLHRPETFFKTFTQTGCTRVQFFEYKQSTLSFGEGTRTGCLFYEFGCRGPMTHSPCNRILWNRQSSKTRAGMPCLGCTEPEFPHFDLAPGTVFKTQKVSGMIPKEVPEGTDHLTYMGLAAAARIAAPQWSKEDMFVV
T1 sequence (A0QUM7 2-516): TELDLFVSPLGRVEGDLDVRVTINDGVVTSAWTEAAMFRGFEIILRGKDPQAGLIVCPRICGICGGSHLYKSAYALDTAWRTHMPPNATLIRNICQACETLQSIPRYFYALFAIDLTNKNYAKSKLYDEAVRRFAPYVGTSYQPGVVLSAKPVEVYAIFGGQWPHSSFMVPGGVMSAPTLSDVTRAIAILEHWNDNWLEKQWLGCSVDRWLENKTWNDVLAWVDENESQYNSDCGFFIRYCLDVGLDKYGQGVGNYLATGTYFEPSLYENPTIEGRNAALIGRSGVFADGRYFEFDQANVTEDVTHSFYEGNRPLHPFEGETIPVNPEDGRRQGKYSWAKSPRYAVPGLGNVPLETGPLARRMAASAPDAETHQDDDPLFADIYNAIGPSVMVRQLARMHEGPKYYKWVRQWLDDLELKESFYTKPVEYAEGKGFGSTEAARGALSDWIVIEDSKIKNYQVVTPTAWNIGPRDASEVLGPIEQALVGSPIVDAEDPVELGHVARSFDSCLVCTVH
T1 sequence (A0QUM5 1-189 partner): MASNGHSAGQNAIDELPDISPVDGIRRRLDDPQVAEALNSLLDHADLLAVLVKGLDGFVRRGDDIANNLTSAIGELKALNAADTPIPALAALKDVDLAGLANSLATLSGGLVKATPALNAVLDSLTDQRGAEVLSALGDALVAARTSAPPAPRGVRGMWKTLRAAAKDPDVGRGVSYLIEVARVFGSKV

[1] = target: Huc protomer (HucSL heterodimer) (Mycobacterium smegmatis mc2155); assay: cryo-EM structure; single-particle reconstruction of the purified Huc oligomer (2.19 Å overall) and of the individual HucS2L2 lobe (1.52 Å and 1.67 Å)
[2] = target: the molecule itself; assay: as above

In the case of `CC1=CC(=O)c2ccccc2C1=O` [menadione], the “H2 electrode and gas chromatography of H2 consumption” value (Huc; 200 µM menadione as electron acceptor) is reported as “Huc displayed a much higher maximum velocity with menadione”.

`COc1cc(-c2ccc(-n3nc(-c4ccccc4)n[n+]3-c3ccc([N+](=O)[O-])cc3)c(OC)c2)ccc1-n1nc(-c2ccccc2)n[n+]1-c1ccc([N+](=O)[O-])cc1` [nitro blue tetrazolium] was tested, and the “H2 electrode and gas chromatography of H2 consumption” value (Huc; 200 µM NBT as electron acceptor) was “using nitro blue tetrazolium (NBT) or the quinone analogue menadione as the electron acceptor”.

With “Huc protomer (HucSL heterodimer) (complex)” the stoichiometry N [1] was 2.

B1: HucM (MSMEG_2261), scaffold subunit of the Mycobacterium smegmatis hydrogenase Huc (natural protein, Mycobacterium smegmatis mc2155, UniProt A0QUM5 1-189, looked up)
chain: MASNGHSAGQNAIDELPDISPVDGIRRRLDDPQVAEALNSLLDHADLLAVLVKGLDGFVRRGDDIANNLTSAIGELKALNAADTPIPALAALKDVDLAGLANSLATLSGGLVKATPALNAVLDSLTDQRGAEVLSALGDALVAARTSAPPAPRGVRGMWKTLRAAAKDPDVGRGVSYLIEVARVFGSKV
notes: HucM, uncharacterized protein MSMEG_2261 encoded directly upstream of hucS in the huc operon, Mycobacterium smegmatis mc2155; approximately 18 kDa; 188 amino acids printed (residues 80 to 189 are also printed); only residues 20-79 modelled in the cryo-EM map; source: M. smegmatis mc2155 PRC1 HucS-2×StrII, endogenous; in cell lysate and co-purified with HucS (StrepTrap, Superose 6)
For B1, the “stoichiometry N” value [2] was 4.
